# Measured values taken from US20240208992A1, “MACROCYCLES AS CFTR MODULATORS” (Idorsia Pharmaceuticals Ltd, priority 2021, published 2024).
# Molecular target: human F508del-CFTR (Homo sapiens, UniProt P13569, DEL508-508)
# Experiment: F508del-CFTR cell surface expression (corrector activity), DiscoveRx ß-galactosidase complementation chemiluminescence assay in recombinant U2OS cell line;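 note: U2OS cells co-expressing ProLink-tagged F508del-CFTR and a membrane-anchored enzyme acceptor, where more surface CFTR restores β-galactosidase activity measured by chemiluminescence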
# Conditions: for EC50: EC50, F508del-CFTR cell surface expression, U2OS cells, 16h compound incubation, geomean values; for Emax: in relation to Emax of corrector lumacaftor (=100%), arithmetic mean values
# human F508del-CFTR, sequence (P13569 with tags, fused parts or gaps DEL508-508): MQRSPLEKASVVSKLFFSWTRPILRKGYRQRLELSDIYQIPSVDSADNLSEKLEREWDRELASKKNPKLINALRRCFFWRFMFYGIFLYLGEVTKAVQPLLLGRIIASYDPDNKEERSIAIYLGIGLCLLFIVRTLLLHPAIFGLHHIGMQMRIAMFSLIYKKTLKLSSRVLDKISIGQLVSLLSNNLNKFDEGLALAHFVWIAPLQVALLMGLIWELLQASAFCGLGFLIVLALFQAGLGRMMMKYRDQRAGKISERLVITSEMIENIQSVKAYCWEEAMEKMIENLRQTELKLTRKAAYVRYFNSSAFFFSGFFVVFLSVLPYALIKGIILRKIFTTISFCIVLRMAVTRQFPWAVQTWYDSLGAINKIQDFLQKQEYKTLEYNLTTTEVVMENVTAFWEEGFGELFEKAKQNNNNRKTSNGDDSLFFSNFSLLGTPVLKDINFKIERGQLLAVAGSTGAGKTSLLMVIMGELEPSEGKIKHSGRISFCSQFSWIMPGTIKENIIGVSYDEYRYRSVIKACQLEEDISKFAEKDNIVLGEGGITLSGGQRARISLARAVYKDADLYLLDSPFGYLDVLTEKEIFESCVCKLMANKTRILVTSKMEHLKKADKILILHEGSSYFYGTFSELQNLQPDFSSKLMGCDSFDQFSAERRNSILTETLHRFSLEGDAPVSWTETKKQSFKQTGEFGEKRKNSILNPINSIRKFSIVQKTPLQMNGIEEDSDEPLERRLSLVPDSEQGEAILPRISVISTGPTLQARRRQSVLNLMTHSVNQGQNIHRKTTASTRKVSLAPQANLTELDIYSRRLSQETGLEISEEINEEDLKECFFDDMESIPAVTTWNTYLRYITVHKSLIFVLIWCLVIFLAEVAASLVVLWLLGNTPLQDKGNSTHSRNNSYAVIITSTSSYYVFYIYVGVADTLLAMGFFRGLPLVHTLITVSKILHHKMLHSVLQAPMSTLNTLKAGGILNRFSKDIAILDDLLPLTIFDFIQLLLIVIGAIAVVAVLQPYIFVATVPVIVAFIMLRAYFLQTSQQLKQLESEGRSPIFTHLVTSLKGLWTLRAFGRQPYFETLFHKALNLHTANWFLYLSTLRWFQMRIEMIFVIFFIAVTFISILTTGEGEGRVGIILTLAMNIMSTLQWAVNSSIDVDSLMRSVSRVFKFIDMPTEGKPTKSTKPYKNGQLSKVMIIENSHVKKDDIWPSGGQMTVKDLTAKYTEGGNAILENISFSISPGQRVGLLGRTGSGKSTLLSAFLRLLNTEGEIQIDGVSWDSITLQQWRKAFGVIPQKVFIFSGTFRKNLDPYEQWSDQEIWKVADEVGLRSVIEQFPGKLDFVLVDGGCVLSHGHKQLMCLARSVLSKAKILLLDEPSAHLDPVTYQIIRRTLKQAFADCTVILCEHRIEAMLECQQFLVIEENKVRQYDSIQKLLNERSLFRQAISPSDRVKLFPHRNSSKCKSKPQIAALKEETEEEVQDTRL
compound,measurement,setting,value
"Cc1cc(CCNC(=O)[C@@H]2CC(=O)N(C)[C@@H](CC(C)C)C(=O)N3CCCC[C@@H]3C(=O)N[C@H](Cc3ccccc3)COc3cnc4cccc(F)c4c3C(=O)N2)on1 [Example 534, (9S,13S,19aR,22R)-22-benzyl-6-fluoro-13-isobutyl-12-methyl-N-(2-(3-methylisoxazol-5-yl)ethyl)-7,11,14,20-tetraoxo-7,8,9,10,11,12,13,14,17,18,19,19a,20,21,22,23-hexadecahydro-16H-pyrido[2′,1′:6,7][1]oxa[4,7,10,14]tetraazacycloheptadecino[17,16-c]quinoline-9-carboxamide]",EC50,,0.273 µM
same,Emax,U2OS,394%
"COc1cccc(CCNC(=O)[C@@H]2CC(=O)N(C)[C@@H](CC(C)C)C(=O)N3CCCC[C@@H]3C(=O)N[C@H](Cc3ccccc3)COc3cnc4cccc(F)c4c3C(=O)N2)c1 [Example 535, (9S,13S,19aR,22R)-22-benzyl-6-fluoro-13-isobutyl-N-(3-methoxyphenethyl)-12-methyl-7,11,14,20-tetraoxo-7,8,9,10,11,12,13,14,17,18,19,19a,20,21,22,23-hexadecahydro-16H-pyrido[2′,1′:6,7][1]oxa[4,7,10,14]tetraazacycloheptadecino[17,16-c]quinoline-9-carboxamide]",EC50,,0.407 µM
same,Emax,U2OS,424%
"COc1cccc(CCNC(=O)[C@@H]2CC(=O)N(C)[C@@H](CC(C)C)C(=O)N3CCN(c4ccccc4)C[C@@H]3C(=O)N[C@H](Cc3ccccc3)COc3ccc4nc(C)oc4c3C(=O)N2)c1 [Example 536, (8S,12S,18aR,21R)-21-benzyl-12-isobutyl-N-(3-methoxyphenethyl)-4,11-dimethyl-6,10,13,19-tetraoxo-17-phenyl-6,7,8,9,10,11,12,13,16,17,18,18a,19,20,21,22-hexadecahydro-15H-oxazolo[4′,5′:5,6]benzo[1,2-p]pyrazino[2,1-f][1]oxa[4,7,10,14]tetraazacycloheptadecine-8-carboxamide]",EC50,,0.175 µM
same,Emax,U2OS,358%
"COc1cccc(CCNC(=O)[C@@H]2CC(=O)N(C)[C@@H](CC(C)C)C(=O)N3CC[C@@H](C3)C(=O)N[C@H](Cc3ccccc3)COc3cnc4ccc(F)cc4c3C(=O)N2)c1 [Example 537, (73S,4R,9S,13S)-4-benzyl-16-fluoro-9-isobutyl-N-(3-methoxyphenethyl)-10-methyl-6,8,11,15-tetraoxo-2-oxa-5,10,14-triaza-1(3,4)-quinolina-7(3,1)-pyrrolidinacyclopentadecaphane-13-carboxamide]",EC50,,0.384 µM
same,Emax,U2OS,294%
"COc1cccc(CCNC(=O)[C@@H]2CC(=O)N(C)[C@@H](CC(C)C)C(=O)N3CCN(c4ccccc4)C[C@@H]3C(=O)N[C@H](Cc3ccccc3)COc3ccnc(OC)c3C(=O)N2)c1 [Example 538, (7S,11S,20R,22aR)-20-benzyl-7-isobutyl-14-methoxy-N-(3-methoxyphenethyl)-8-methyl-6,9,13,22-tetraoxo-2-phenyl-1,3,4,6,7,8,9,10,11,12,13,19,20,21,22,22a-hexadecahydro-2H-pyrazino[2,1-f]pyrido[3,4-p][1]oxa[4,7,10,14]tetraazacycloheptadecine-11-carboxamide]",EC50,,0.08 µM
same,Emax,U2OS,340%
"CC(C)C[C@H]1C(=O)N(C)[C@@H](CC2CCC(F)(F)CC2)C(=O)N[C@H](Cc2ccccc2)COc2cnc3ccc(F)cc3c2C(=O)N[C@H](C(=O)NCCc2noc(C3CC3)n2)CC(=O)N1C [Example 539, (3S,7S,10R,13R)-13-benzyl-N-(2-(5-cyclopropyl-1,2,4-oxadiazol-3-yl)ethyl)-10-((4,4-difluorocyclohexyl)methyl)-20-fluoro-7-isobutyl-6,9-dimethyl-1,5,8,11-tetraoxo-1,2,3,4,5,6,7,8,9,10,11,12,13,14-tetradecahydro-[1]oxa[4,7,10,14]tetraazacycloheptadecino[17,16-c]quinoline-3-carboxamide]",EC50,,0.095 µM
same,Emax,,391%
"CC(C)C[C@H]1C(=O)N(C)[C@@H](CC2CCC(F)(F)CC2)C(=O)N[C@H](Cc2ccccc2)COc2cnc3ccc(F)cc3c2C(=O)N[C@H](C(=O)NCCc2noc(C3CC3)n2)CC(=O)N1C [Example 540, (3S,7S,10S,13R)-13-benzyl-N-(2-(5-cyclopropyl-1,2,4-oxadiazol-3-yl)ethyl)-10-((4,4-difluorocyclohexyl)methyl)-20-fluoro-7-isobutyl-6,9-dimethyl-1,5,8,11-tetraoxo-1,2,3,4,5,6,7,8,9,10,11,12,13,14-tetradecahydro-[1]oxa[4,7,10,14]tetraazacycloheptadecino[17,16-c]quinoline-3-carboxamide]",EC50,,0.269 µM
same,Emax,,256%
"CC(C)C[C@H]1C(=O)N2CCCC[C@@H]2C(=O)N[C@H](Cc2ccccc2)COc2ccc3ncc(F)cc3c2C(=O)N[C@H](C(=O)NCCc2noc(C3CC3)n2)CC(=O)N1C [Example 541, (9S,13S,19aR,22R)-22-benzyl-N-(2-(5-cyclopropyl-1,2,4-oxadiazol-3-yl)ethyl)-5-fluoro-13-isobutyl-12-methyl-7,11,14,20-tetraoxo-7,8,9,10,11,12,13,14,17,18,19,19a,20,21,22,23-hexadecahydro-16H-pyrido[2′,1′:6,7][1]oxa[4,7,10,14]tetraazacycloheptadecino[16,17-f]quinoline-9-carboxamide]",EC50,,0.185 µM
same,Emax,U2OS,357%
"COc1nccc2c1C(=O)N[C@H](C(=O)NCCc1cc(C)no1)CC(=O)N(C)[C@@H](CC(C)C)C(=O)N1CCN(c3ccccc3)C[C@@H]1C(=O)N[C@H](Cc1ccccc1)CO2 [Example 542, (7S,11S,20R,22aR)-20-benzyl-7-isobutyl-14-methoxy-8-methyl-N-(2-(3-methylisoxazol-5-yl)ethyl)-6,9,13,22-tetraoxo-2-phenyl-1,3,4,6,7,8,9,10,11,12,13,19,20,21,22,22a-hexadecahydro-2H-pyrazino[2,1-f]pyrido[3,4-p][1]oxa[4,7,10,14]tetraazacycloheptadecine-11-carboxamide]",EC50,,0.368 µM
same,Emax,U2OS,334%
"CC(C)C[C@H]1C(=O)N(C)C2(CC2)C(=O)N[C@H](Cc2ccccc2)COc2ccc3ncccc3c2C(=O)N[C@H](C(=O)NCCc2cc(C3CC3)no2)CC(=O)N1C [Example 543, (3′S,7′S,13′R)-13′-benzyl-N-(2-(3-cyclopropylisoxazol-5-yl)ethyl)-7′-isobutyl-6′,9′-dimethyl-1′,5′,8′,11′-tetraoxo-2′,3′,4′,5′,6′,7′,8′,9′,11′,12′,13′,14′-dodecahydro-1′H-spiro[cyclopropane-1,10′-[1]oxa[4,7,10,14]tetraazacycloheptadecino[16,17-f]quinoline]-3′-carboxamide]",EC50,,0.785 µM
same,Emax,U2OS,399%
"CC(C)C[C@H]1C(=O)N(C)C2(CC2)C(=O)N[C@H](Cc2ccccc2)COc2ccc3ncccc3c2C(=O)N[C@H](C(=O)NCCc2noc(C3CC3)n2)CC(=O)N1C [Example 544, (3′S,7′S,13′R)-13′-benzyl-N-(2-(5-cyclopropyl-1,2,4-oxadiazol-3-yl)ethyl)-7′-isobutyl-6′,9′-dimethyl-1′,5′,8′,11′-tetraoxo-2′,3′,4′,5′,6′,7′,8′,9′,11′,12′,13′,14′-dodecahydro-1′H-spiro[cyclopropane-1,10′-[1]oxa[4,7,10,14]tetraazacycloheptadecino[16,17-f]quinoline]-3′-carboxamide]",EC50,,0.774 µM
same,Emax,U2OS,398%
"CC(C)C[C@H]1C(=O)N(C)C2(CC2)C(=O)N[C@H](Cc2ccccc2)COc2ccc3ncc(F)cc3c2C(=O)N[C@H](C(=O)NCCc2cc(C3CC3)no2)CC(=O)N1C [Example 545, (3′S,7′S,13′R)-13′-benzyl-N-(2-(3-cyclopropylisoxazol-5-yl)ethyl)-20′-fluoro-7′-isobutyl-6′,9′-dimethyl-1′,5′,8′,11′-tetraoxo-2′,3′,4′,5′,6′,7′,8′,9′,11′,12′,13′,14′-dodecahydro-1′H-spiro[cyclopropane-1,10′-[1]oxa[4,7,10,14]tetraazacycloheptadecino[16,17-f]quinoline]-3′-carboxamide]",EC50,,0.349 µM
same,Emax,U2OS,385%
"CC(C)C[C@H]1C(=O)N(C)C2(CC2)C(=O)N[C@H](Cc2ccccc2)COc2ccc3ncc(F)cc3c2C(=O)N[C@H](C(=O)NCCc2noc(C3CC3)n2)CC(=O)N1C [Example 546, (3′S,7′S,13′R)-13′-benzyl-N-(2-(5-cyclopropyl-1,2,4-oxadiazol-3-yl)ethyl)-20′-fluoro-7′-isobutyl-6′,9′-dimethyl-1′,5′,8′,11′-tetraoxo-2′,3′,4′,5′,6′,7′,8′,9′,11′,12′,13′,14′-dodecahydro-1′H-spiro[cyclopropane-1,10′-[1]oxa[4,7,10,14]tetraazacycloheptadecino[16,17-f]quinoline]-3′-carboxamide]",EC50,,0.35 µM
same,Emax,U2OS,411%
"Cc1cc(CCNC(=O)[C@@H]2CC(=O)N(C)[C@@H](CC(C)C)C(=O)N(C)[C@H](C(C)C)C(=O)N[C@H](Cc3ccccc3)COc3cnc4ccccc4c3C(=O)N2)on1 [Example 547, (3S,7S,10R,13R)-13-benzyl-7-isobutyl-10-isopropyl-6,9-dimethyl-N-(2-(3-methylisoxazol-5-yl)ethyl)-1,5,8,11-tetraoxo-1,2,3,4,5,6,7,8,9,10,11,12,13,14-tetradecahydro-[1]oxa[4,7,10,14]tetraazacycloheptadecino[17,16-c]quinoline-3-carboxamide]",EC50,,0.281 µM
same,Emax,U2OS,330%
"Cc1cc(CCNC(=O)[C@@H]2CC(=O)N(C)[C@@H](CC(C)C)C(=O)N(C)[C@H](CC(C)C)C(=O)N[C@H](Cc3ccccc3)COc3cnc4ccccc4c3C(=O)N2)on1 [Example 548, (3S,7S,10R,13R)-13-benzyl-7,10-diisobutyl-6,9-dimethyl-N-(2-(3-methylisoxazol-5-yl)ethyl)-1,5,8,11-tetraoxo-1,2,3,4,5,6,7,8,9,10,11,12,13,14-tetradecahydro-[1]oxa[4,7,10,14]tetraazacycloheptadecino[17,16-c]quinoline-3-carboxamide]",EC50,,0.106 µM
same,Emax,U2OS,326%
